Test [1] concerns the target T1, human GR (Homo sapiens, UniProt P04150).
T1 sequence (P04150 1-777): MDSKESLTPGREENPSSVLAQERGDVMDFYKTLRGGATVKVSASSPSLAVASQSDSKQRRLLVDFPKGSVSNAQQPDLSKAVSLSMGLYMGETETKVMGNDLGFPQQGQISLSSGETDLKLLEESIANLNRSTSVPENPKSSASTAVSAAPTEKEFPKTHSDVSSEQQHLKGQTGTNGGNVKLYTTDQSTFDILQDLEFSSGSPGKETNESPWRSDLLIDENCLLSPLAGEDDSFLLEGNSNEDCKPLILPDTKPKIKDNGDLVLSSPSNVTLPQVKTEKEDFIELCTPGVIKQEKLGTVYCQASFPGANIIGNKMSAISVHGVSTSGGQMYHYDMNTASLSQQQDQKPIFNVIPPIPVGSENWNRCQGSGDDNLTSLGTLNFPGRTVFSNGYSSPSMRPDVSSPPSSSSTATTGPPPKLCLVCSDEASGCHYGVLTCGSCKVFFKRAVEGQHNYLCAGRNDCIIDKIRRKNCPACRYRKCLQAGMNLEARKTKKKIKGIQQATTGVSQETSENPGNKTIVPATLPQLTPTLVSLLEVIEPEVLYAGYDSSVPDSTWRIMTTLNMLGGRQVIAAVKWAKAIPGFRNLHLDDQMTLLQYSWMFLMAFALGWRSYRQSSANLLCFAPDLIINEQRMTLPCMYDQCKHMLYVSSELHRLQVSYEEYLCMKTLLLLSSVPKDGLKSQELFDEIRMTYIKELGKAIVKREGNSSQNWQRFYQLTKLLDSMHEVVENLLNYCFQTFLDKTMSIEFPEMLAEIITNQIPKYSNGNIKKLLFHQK
Kind of test: Trans-Activation Modulation of Glucocorticoid Receptor (GRAMMER), MMTV-LUC reporter, agonist mode. Details: endogenous in cells. In kind it is cell-based. To be noted: for Emax: A549, A549 cells, maximum activity, read-out: Transactivation A549 Cells GRAMMER Emax; for EC50: A549 cells, inflection point, read-out: Transactivation A549 Cells GRAMMER IP. The method in brief: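 Readout is luciferase from a modified MMTV LTR promoter after 24 h compound exposure alongside 10 nM dexamethasone (100% activity reference), DMSO ≤1%.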

For test [2], the target named is T1, human GR. Kind of test: Transrepression Assay (GITAR), TNFα-β-lactamase reporter in U937 cells. Details: U937 cells contain an endogenous glucocorticoid receptor (GR); endogenous in cells; host or cells: U937 cells stably transfected with the TNF-alpha promoter/beta-lactamase reporter. Particulars: for EC50: U937 cells, inflection point, read-out: Transrepression U937 Cells GITAR IP; for GITAR > GRAMM % SEP: GITAR Emax minus GRAMMER Emax. In kind it is cell-based. The method in brief: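 First, U937 reporter cells (TNF-α promoter–β-lactamase, native GR) received compound for 30–45 min at 37 °C. Next, PMA (5 ng/ml) and LPS (100 ng/ml) final were added for about 18 hr. Finally, CCF2-AM loading gave the read-out, with 100 nM dexamethasone as 100%.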

[3] abbreviates: U-937, U937 cells, maximum activity, read-out: Transrepression U937 Cells GITAR Emax.
The mark [4] stands for this setting: U-937, activity repressed by 100 nM dexamethasone alone set as 100%, read-out: maximal activity in the transrepression (GITAR) assay.

As to `Cn1cc(S(=O)(=O)N(CC2CCCO2)C[C@H]2CCC3=Cc4c(cnn4-c4ccc(F)cc4)C[C@@]32C)c(C(F)(F)F)n1` (stereo partly drawn) [Example 175, N-{[(4αR,5S)-1-(4-fluorophenyl)-4α-methyl-1,4,4α,5,6,7-hexahydrocyclopenta[f]indazol-5-yl]methyl}-1-methyl-N-(tetrahydrofuran-2-ylmethyl)-3-(trifluoromethyl)-1H-pyrazole-4-sulfonamide], the results for the Emax at human GR [1], on human GR [2] (setting [3]) and at human GR [2] (setting [4]) were 22.7%, 47.5% and over 5%, respectively. For the same compound, the EC50 was found to be 381 nM on human GR [1] and 822 nM on human GR [2].
For the compound `Cc1noc(C)c1S(=O)(=O)N(C)C[C@H]1CCC2=Cc3c(cnn3-c3ccc(F)cc3)C[C@@]21C` [Example 176, N-{[(4αR,5S)-1-(4-fluorophenyl)-4α-methyl-1,4,4α,5,6,7-hexahydrocyclopenta[f]indazol-5-yl]methyl}-N,3,5-trimethylisoxazole-4-sulfonamide], the results for the Emax on human GR [1], at human GR [2] (setting [3]) and on human GR [2] (setting [4]) were 56.9%, 74.5% and over 5%, respectively. Also, the EC50 at human GR [1] is 246 nM; at human GR [2] it was 316 nM. Further, the “GITAR > GRAMM % SEP” value on human GR [2] worked out at 17.6%.
`CN(C[C@H]1CCC2=Cc3c(cnn3-c3ccc(F)cc3)C[C@@]21C)S(=O)(=O)CC(F)(F)F` [Example 177, 2,2,2-trifluoro-N-{[(4αR,5S)-1-(4-fluorophenyl)-4α-methyl-1,4,4α,5,6,7-hexahydrocyclopenta[f]indazol-5-yl]methyl}-N-methylethanesulfonamide]: the Emax was 67.3% on human GR [1], 80.2% at human GR [2] (setting [3]) and over 5% on human GR [2] (setting [4]). Besides, the EC50 was found to be 169 nM at human GR [1] and 177 nM on human GR [2]. Further, the “GITAR > GRAMM % SEP” value on human GR [2] is recorded as 12.9%.
In the case of `CCN(C[C@H]1CCC2=Cc3c(cnn3-c3ccc(F)cc3)C[C@@]21C)S(=O)(=O)c1c(C)noc1C` [Example 178, N-ethyl-N-{[(4αR,5S)-1-(4-fluorophenyl)-4α-methyl-1,4,4α,5,6,7-hexahydrocyclopenta[f]indazol-5-yl]methyl}-3,5-dimethylisoxazole-4-sulfonamide], the Emax at human GR [1] is 55%; at human GR [2] (setting [3]), 74.5%; at human GR [2] (setting [4]), over 5%. In addition, the EC50 turned out to be 110 nM at human GR [1] and 276 nM at human GR [2]. In addition, at human GR [2], the “GITAR > GRAMM % SEP” value is reported as 19.5%.
Regarding `CCN(C[C@H]1CCC2=Cc3c(cnn3-c3ccc(F)cc3)C[C@@]21C)S(=O)(=O)CC(F)(F)F` [Example 179, N-ethyl-2,2,2-trifluoro-N-{[(4αR,5S)-1-(4-fluorophenyl)-4α-methyl-1,4,4α,5,6,7-hexahydrocyclopenta[f]indazol-5-yl]methyl}ethanesulfonamide], the Emax is 65.4% on human GR [1], 96.5% at human GR [2] (setting [3]) and over 5% on human GR [2] (setting [4]). For the same compound, the EC50 on human GR [1] amounted to 277 nM; on human GR [2], 440 nM. Moreover, the “GITAR > GRAMM % SEP” value on human GR [2] was 31.2%.
As to `COC(=O)c1ccccc1CS(=O)(=O)N(C[C@H]1CCC2=Cc3c(cnn3-c3ccc(F)cc3)C[C@@]21C)C[C@@H](C)O` [Example 180, methyl 2-[({{[(4αR,5S)-1-(4-fluorophenyl)-4α-methyl-1,4,4α,5,6,7-hexahydrocyclopenta[f]indazol-5-yl]methyl}[(2R)-2-hydroxypropyl]amino}sulfonyl)methyl]benzoatee], the values for the Emax on human GR [1], on human GR [2] (setting [3]) and on human GR [2] (setting [4]) were 38.1%, 77.7% and over 5%, respectively. The EC50 is 247 nM on human GR [1] and 187 nM on human GR [2]. Also, at human GR [2], the “GITAR > GRAMM % SEP” value was determined as 39.5%.
Regarding `COC(=O)c1ccccc1CS(=O)(=O)N(C[C@H]1CCC2=Cc3c(cnn3-c3ccc(F)cc3)C[C@@]21C)C[C@H](C)O` [Example 181, methyl 2-[({{[(4αR,5S)-1-(4-fluorophenyl)-4α-methyl-1,4,4α,5,6,7-hexahydrocyclopenta[f]indazol-5-yl]methyl}[(2S)-2-hydroxypropyl]amino}sulfonyl)methyl]benzoate], the figures for the Emax at human GR [1], on human GR [2] (setting [3]) and at human GR [2] (setting [4]) were 54.6%, 79.2% and over 5%, respectively. For the same compound, the EC50 was determined as 364 nM at human GR [1] and 263 nM at human GR [2]. At human GR [2], the “GITAR > GRAMM % SEP” value is 24.7%.
Consider `C[C@@H](O)CN(C[C@H]1CCC2=Cc3c(cnn3-c3ccc(F)cc3)C[C@@]21C)S(=O)(=O)Cc1ccccc1C(=O)O` [Example 182, 2-[({{[(4αR,5S)-1-(4-fluorophenyl)-4α-methyl-1,4,4α,5,6,7-hexahydrocyclopenta[f]indazol-5-yl]methyl}[(2R)-2-hydroxypropyl]amino}sulfonyl)methyl]benzoic acid], for which the Emax at human GR [1] is 8%; on human GR [2] (setting [3]) it was 16.2%; at human GR [2] (setting [4]), over 5%. Further, the EC50 worked out at 4760 nM at human GR [1] and 1890 nM at human GR [2]. Also, the “GITAR > GRAMM % SEP” value on human GR [2] is on record as 8.2%.
Turning to `C[C@H](O)CN(C[C@H]1CCC2=Cc3c(cnn3-c3ccc(F)cc3)C[C@@]21C)S(=O)(=O)Cc1ccccc1C(=O)O` [Example 183, 2-[({{[(4αR,5S)-1-(4-fluorophenyl)-4α-methyl-1,4,4α,5,6,7-hexahydrocyclopenta[f]indazol-5-yl]methyl}[(2S)-2-hydroxypropyl]amino}sulfonyl)methyl]benzoic acid], the figures for the Emax on human GR [1], at human GR [2] (setting [3]) and at human GR [2] (setting [4]) were 15%, 23.2% and over 5%, respectively. Besides, the EC50 is 4500 nM at human GR [1] and 3310 nM at human GR [2]. Moreover, the “GITAR > GRAMM % SEP” value at human GR [2] is recorded as 8.2%.
As for `C[C@@H](O)CN(C[C@H]1CCC2=Cc3c(cnn3-c3ccc(F)cc3)C[C@@]21C)S(=O)(=O)Cc1ccccc1C(N)=O` [Example 184, 2-[({{[(4αR,5S)-1-(4-fluorophenyl)-4α-methyl-1,4,4α,5,6,7-hexahydrocyclopenta[f]indazol-5-yl]methyl}[(2R)-2-hydroxypropyl]amino}sulfonyl)methyl]benzamide], the Emax on human GR [1] is 21.6%; at human GR [2] (setting [3]) it was 60.3%; at human GR [2] (setting [4]), over 5%. For the same compound, the figures for the EC50 at human GR [1] and on human GR [2] were 422 nM and 562 nM, respectively. The “GITAR > GRAMM % SEP” value at human GR [2] was 38.7%.
As for `C[C@H](O)CN(C[C@H]1CCC2=Cc3c(cnn3-c3ccc(F)cc3)C[C@@]21C)S(=O)(=O)Cc1ccccc1C(N)=O` [Example 185, 2-[({{[(4αR,5S)-1-(4-fluorophenyl)-4α-methyl-1,4,4α,5,6,7-hexahydrocyclopenta[f]indazol-5-yl]methyl}[(2S)-2-hydroxypropyl]amino}sulfonyl)methyl]benzamide], the Emax at human GR [1] was 19.9%; at human GR [2] (setting [3]), 63%; on human GR [2] (setting [4]) it was over 5%. The EC50 turned out to be 250 nM on human GR [1] and 676 nM on human GR [2]. Also, the “GITAR > GRAMM % SEP” value on human GR [2] was 43.1%.
In the case of `COC(=O)c1ccccc1S(=O)(=O)N(C[C@H]1CCC2=Cc3c(cnn3-c3ccc(F)cc3)C[C@@]21C)C[C@@H](C)O` [Example 186, methyl 2-({{[(4αR,5S)-1-(4-fluorophenyl)-4α-methyl-1,4,4α,5,6,7-hexahydrocyclopenta[f]indazol-5-yl]methyl}[(2R)-2-hydroxypropyl]amino}sulfonyl)benzoate], the results for the Emax at human GR [1], on human GR [2] (setting [3]) and at human GR [2] (setting [4]) were 35.8%, 63.5% and over 5%, respectively. For the same compound, the EC50 on human GR [1] came out at 509 nM; on human GR [2], 697 nM. Moreover, the “GITAR > GRAMM % SEP” value at human GR [2] came to 27.7%.

The values above are taken from patent US8299048B2, “Hexahydrocyclopentyl[f]indazole sulfonamides and derivatives thereof as selective glucocorticoid receptor modulators” (Merck Sharp & Dohme Corp., priority 2008, dated 2012).
